# Experimental data published in patent US20210401798A1, “LIPOXIN A4 ANALOGS AND USES THEREOF” (The Brigham and Women's Hospital, Inc., priority 2018, published 2021).
# Legend:
# [1] = Rat pharmacokinetic study; type: in vivo; conditions: SD rats, IV 0.3 mg/kg
# Protocol: Sprague Dawley (SD) rats (n=3/group) were administered either compound (1) or compound (2) orally at 10 mg/kg (5% ethanol, 5% VE-TPGS, 90% PEG400) or intravenously at 0.3 mg/kg (5% NMP, 95% PEG400). The resulting individual and mean plasma concentration-time was measured for the free acid, compound (2), with the data provided in Tables 4-7.
# [2] = target: T1, human GPR32 (RvD1 Receptor) (Homo sapiens, UniProt O75388); assay: Beta-Arrestin PathHunter GPR32 activation assay; type: cell-based; conditions: CHO-GPR32 cells, 1 h at 37° C., chemiluminescence
# T1 construct: host or cells: CHO cells (CHO-GPR32)
# Protocol: (§1) Ligand receptor interactions were monitored using the Beta-Arrestin PathHunter eXpress System™ (DiscoverX, Fremont, Calif.) and carried out with CHO cells stably overexpressing recombinant human GPR32 receptors. CHO-GPR32 cells were plated onto 96-well plates 24 h prior to experiments. Test compounds at indicated concentrations were incubated with cells for 1 h at 37° C. and receptor activation was determined by measuring chemiluminescence using the PathHunter detection kit. The results of this experiment are expressed as % increase of chemiluminescence above vehicle control (FIG. 2). Results are mean from 3 or 4 independent experiments and 3 replicates in each experiment.
# [3] = system: peritoneal lavage cells; assay: Cell count in mouse peritonitis model (zymosan); type: in vivo
# [4] = target: T2, human recombinant CB2 receptor (Homo sapiens, UniProt P34972); assay: CB2 radioligand binding assay
# T2 construct: expressed in transfected cells; host or cells: CHO cells (membrane homogenates)
# Protocol: (§2) The binding affinity (% inhibition, K) of each of Compounds (1) and (2) for the CB1 and CB2 receptors was determined by a competitive radioligand binding assay. […] By comparison, no binding of the free acid to either the CB1 or CB2 receptors was observed (FIG. 5). The radioligand binding assays were performed as described below.
# CB2 Radioligand Binding Assay: Cell membrane homogenates (12 μg protein) prepared from CHO cells expressing human recombinant CB2 receptor were incubated for 120 min at 37° C. with 0.8 nM [^3H]WIN 55212-2 (CB1/CB2 radioligand) in the absence or presence of the test compound in a buffer containing 50 mM Hepes/Tris (pH 7.4), 5 mM MgCl2, 2.5 mM EGTA and 0.1% BSA. Nonspecific binding was determined in the presence of 5 μM WIN 55212-2. Each compound was tested in 8 concentrations. For each concentration, % Inhibition was determined as a function of radioligand specific binding to the CB2 receptor. The K was determined from the concentration-response curve of each tested compound.
# (§3) Further details for determining the binding affinity of compounds for a cannabinoid receptor by competitive radioligand binding can be found in the literature, for example, in Rinaldi-Carmona M, et al. Characterization of two cloned human CB1 cannabinoid receptors isoform. […]
# [5] = target: T3, human ALX/FPR2 (LXA4 Receptor) (Homo sapiens, UniProt P25090); assay: Beta-Arrestin PathHunter ALX/FPR2 activation assay; type: cell-based; conditions: HEK-ALX cells, 1 h at 37° C., chemiluminescence
# T3 construct: host or cells: HEK cells (HEK-ALX)
# T3 sequence (P25090 1-351): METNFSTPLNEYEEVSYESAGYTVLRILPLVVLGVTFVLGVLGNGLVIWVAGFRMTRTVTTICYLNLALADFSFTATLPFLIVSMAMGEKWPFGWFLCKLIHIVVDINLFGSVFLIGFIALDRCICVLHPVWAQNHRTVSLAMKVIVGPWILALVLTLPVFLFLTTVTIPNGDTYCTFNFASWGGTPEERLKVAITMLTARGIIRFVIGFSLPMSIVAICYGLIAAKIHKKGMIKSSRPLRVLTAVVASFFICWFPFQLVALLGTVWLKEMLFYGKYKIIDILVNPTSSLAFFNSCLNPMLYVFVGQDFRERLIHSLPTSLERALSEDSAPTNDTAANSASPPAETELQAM
# Protocol: as §1, with “HEK” for “CHO”, “ALX” for “GPR32”, “HEK-ALX” for “CHO-GPR32”, “Results” for “The results of this experiment”, “3).” for “2).”
# [6] = target: T4, human recombinant CB1 receptor (Homo sapiens, UniProt P21554); assay: CB1 radioligand binding assay
# T4 construct: expressed in transfected cells; host or cells: Chem cells (membrane homogenates)
# Protocol: as §2
# CB1 Radioligand Binding Assay: Cell membrane homogenates (5 μg protein) prepared from Chem cells expressing human recombinant CB1 receptor were incubated for 30 min at 22° C. with 2 nM [^3H]CP 55940 (CB1/CB2 radioligand) in the absence or presence of the test compound in a buffer containing 50 mM Tris-HCl (pH 7.4), 5 mM MgCl2, 2.5 mM EDTA and 0.3% BSA. Nonspecific binding is determined in the presence of 10 μM WIN 55212-2. Each compound was tested in 8 concentrations. For each concentration, % Inhibition was determined as a function of radioligand specific binding to the CB1 receptor. The K was determined from the concentration-response curve of each tested compound.
# as §3
# [7] = system: PMN; assay: PMN clearance in vivo, E. coli initiated peritonitis; design: species or system mouse
# Protocol: FVB mice (male, 6 wks old) were inoculated with E. coli (10^5 CFU). […] Total leukocytes were enumerated using light microscopy and PMN numbers were determined by flow cytometry. […] Resolution indices were calculated using PMN numbers.
# [8] = system: Human Mϕ; assay: Human macrophage phagocytosis of live E. coli; type: cell-based; conditions: BacLight Green-labeled E. coli, fluorescence
# Protocol: Human Mϕ were plated onto chamber slides (0.1×10^6 cells/well), incubated with RvD1, compound (10 nM), or vehicle alone for 15 min at 37° C., followed by addition of BacLight Green-labeled E. coli to initiate phagocytosis. Fluorescent images were then recorded every 10 min for 120 min (37° C.) using Keyence BZ-9000 (BIOREVO) inverted fluorescence phase-contrast microscope (40× objective) equipped with a monochrome/color switching camera using BZ-II Viewer software (Keyence, Itasca, Ill., USA). Green fluorescence intensity was quantified using BZ-II Analyzer. Results are recordings of mean fluorescence intensity (MFI) from one representative donor (FIG. 6). Human Mϕ were plated onto 96-well plates (5×10^4 cells/well), incubated with RvD1, compound (1 pM-100 nM) or vehicle alone for 15 min at 37° C., followed by addition of BacLight Green-labeled E. coli (E. coli:Mϕ=50:1) to initiate phagocytosis. One hour later, fluorescence associated with Mϕ was determined using a microplate reader. Results are expressed as percent increase above vehicle (E. coli alone); mean from 4 separate experiments (FIG. 7).
# [9] = 24 h post-zymosan, 0.1 μg/mouse
# [10] = FVB mice, 100 ng i.p. 12 h after inoculation
# T2 sequence (P34972 whole entry): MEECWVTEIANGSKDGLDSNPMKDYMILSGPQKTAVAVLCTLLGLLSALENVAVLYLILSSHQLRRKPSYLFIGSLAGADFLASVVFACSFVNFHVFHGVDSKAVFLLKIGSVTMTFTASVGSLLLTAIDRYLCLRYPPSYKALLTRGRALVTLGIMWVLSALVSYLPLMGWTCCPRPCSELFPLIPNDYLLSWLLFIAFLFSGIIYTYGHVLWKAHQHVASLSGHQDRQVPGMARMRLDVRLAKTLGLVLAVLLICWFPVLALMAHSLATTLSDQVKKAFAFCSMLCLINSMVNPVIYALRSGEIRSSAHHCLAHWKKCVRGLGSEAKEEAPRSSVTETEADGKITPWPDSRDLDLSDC
# T4 sequence (P21554 whole entry): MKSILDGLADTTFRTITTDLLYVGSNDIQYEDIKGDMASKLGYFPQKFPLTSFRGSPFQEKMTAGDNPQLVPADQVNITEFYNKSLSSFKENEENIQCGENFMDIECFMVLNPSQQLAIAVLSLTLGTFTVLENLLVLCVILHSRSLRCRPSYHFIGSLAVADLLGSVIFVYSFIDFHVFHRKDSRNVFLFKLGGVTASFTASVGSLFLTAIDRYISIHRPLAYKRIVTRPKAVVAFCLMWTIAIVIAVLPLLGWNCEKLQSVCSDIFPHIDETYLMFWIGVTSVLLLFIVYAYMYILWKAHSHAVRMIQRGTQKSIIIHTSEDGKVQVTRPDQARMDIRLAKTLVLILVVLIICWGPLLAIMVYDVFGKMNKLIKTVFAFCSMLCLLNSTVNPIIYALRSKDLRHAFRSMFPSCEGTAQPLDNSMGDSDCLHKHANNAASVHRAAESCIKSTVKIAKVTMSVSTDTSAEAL
# T1 sequence (O75388 whole entry): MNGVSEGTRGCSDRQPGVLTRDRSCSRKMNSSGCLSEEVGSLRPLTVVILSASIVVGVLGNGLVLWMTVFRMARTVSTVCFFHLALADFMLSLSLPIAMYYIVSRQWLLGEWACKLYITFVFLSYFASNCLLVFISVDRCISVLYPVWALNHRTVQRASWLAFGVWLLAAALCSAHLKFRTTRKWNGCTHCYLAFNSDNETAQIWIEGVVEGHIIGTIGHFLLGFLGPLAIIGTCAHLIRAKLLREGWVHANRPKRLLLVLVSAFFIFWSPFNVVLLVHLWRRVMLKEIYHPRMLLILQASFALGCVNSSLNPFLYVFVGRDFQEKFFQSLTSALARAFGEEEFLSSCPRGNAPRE
smiles,measurement,setting,value
"O=C1COC[C@@H]([C@H](O)/C=C/C=C/C#C/C=C/[C@H](O)COc2ccc(F)cc2)O1 [Compound (1), (S)-6-((1R,2E,4E,8E,10S)-11-(4-fluorophenoxy)-1,10-dihydroxyundeca-2,4,8-trien-6-yn-1-yl)-1,4-dioxan-2-one]","plasma Concentration of compound (2), Individual","[1]; 8 hr, 0.3 mg/kg",BQL
same,"plasma Concentration of compound (2), Individual","[1]; 12 hr, 0.3 mg/kg",BQL
same,"plasma Concentration of compound (2), Individual",[1]; 24 hr,BQL
same,"plasma Concentration of compound (2), Mean",[1]; 24 hr,BQL
same,activation of human GPR32 (RvD1 Receptor),[2],activates
same,Estimated PMNs,"[3]; 3 h post-zymosan, 0.1 μg/mouse",5977.50 10^3/ml
same,Granulocytes Counted (100 cells),"[3]; 3 h post-zymosan, 0.1 μg/mouse",96.4
same,Mononuclear Counted (100 cells),"[3]; 3 h post-zymosan, 0.1 μg/mouse",3.6
same,Nucleated Cells,"[3]; 3 h post-zymosan, 0.1 μg/mouse",6165.00 10^3/ml
same,Estimated PMNs,"[3]; 3 h post-zymosan, 10 μg/mouse",*4012.13 10^3/ml
same,Granulocytes Counted (100 cells),"[3]; 3 h post-zymosan, 10 μg/mouse",95.0
same,Mononuclear Counted (100 cells),"[3]; 3 h post-zymosan, 10 μg/mouse",5.0
same,Nucleated Cells,"[3]; 3 h post-zymosan, 10 μg/mouse",*4237.50 10^3/ml
same,Estimated PMNs,[3]; [9],14672.70 10^3/ml
same,Granulocytes Counted (100 cells),[3]; [9],88.8
same,Mononuclear Counted (100 cells),[3]; [9],11.2
same,Nucleated Cells,[3]; [9],16380.00 10^3/ml
same,Ki,"[4]; [3H]WIN 55212-2 competition, read-out: K (binding affinity) CB2 receptor",630 nM
same,activation of human ALX/FPR2 (LXA4 Receptor),[5],activates
same,Ki,"[6]; [3H]CP 55940 competition, read-out: K (binding affinity) CB1 receptor",> 5000 nM
same,Resolution Interval,[7]; [10],11 h
same,T50,[7]; [10],23 h
same,Tmax,[7]; [10],12 h
same,reduction of Tmax,[7]; vs E. coli alone,50%
same,human macrophage phagocytosis of live E. coli,[8],enhances
"O=C(O)COC[C@H](O)[C@H](O)/C=C/C=C/C#C/C=C/[C@H](O)COc1ccc(F)cc1 [Compound (2), 2-(((2S,3R,4E,6E,10E,12S)-13-(4-fluorophenoxy)-2,3,12-trihydroxytrideca-4,6,10-trien-8-yn-1-yl)oxy)acetic acid, reference compound]","plasma Concentration of compound (2), Individual","[1]; 12 hr, 0.3 mg/kg",BQL
same,"plasma Concentration of compound (2), Individual",[1]; 24 hr,BQL
same,"plasma Concentration of compound (2), Mean",[1]; 24 hr,BQL
same,binding to CB2 receptor,[4]; radioligand binding,no binding
same,binding to CB1 receptor,[6]; radioligand binding,no binding
"CC/C=C\C[C@H](O)/C=C/C=C\C=C\C=C\[C@@H](O)[C@@H](O)C/C=C\CCC(=O)O [RvD1, resolvin D1, reference compound]",Estimated PMNs,"[3]; 3 h post-zymosan, 0.1 μg/mouse",5723.25 10^3/ml
same,Granulocytes Counted (100 cells),"[3]; 3 h post-zymosan, 0.1 μg/mouse",89.8
same,Mononuclear Counted (100 cells),"[3]; 3 h post-zymosan, 0.1 μg/mouse",10.8
same,Nucleated Cells,"[3]; 3 h post-zymosan, 0.1 μg/mouse",6375.00 10^3/ml
same,Estimated PMNs,"[3]; 3 h post-zymosan, 1 μg/mouse",6685.13 10^3/ml
same,Granulocytes Counted (100 cells),"[3]; 3 h post-zymosan, 1 μg/mouse",96.3
same,Mononuclear Counted (100 cells),"[3]; 3 h post-zymosan, 1 μg/mouse",3.8
same,Nucleated Cells,"[3]; 3 h post-zymosan, 1 μg/mouse",6232.50 10^3/ml
same,Estimated PMNs,"[3]; 24 h post-zymosan, 1 μg/mouse",11496.23 10^3/ml
same,Granulocytes Counted (100 cells),"[3]; 24 h post-zymosan, 1 μg/mouse",86.6
same,Mononuclear Counted (100 cells),"[3]; 24 h post-zymosan, 1 μg/mouse",13.4
same,Nucleated Cells,"[3]; 24 h post-zymosan, 1 μg/mouse",13267.50 10^3/ml
